Columns and labels:
[1] = system: S. aureus ATCC 6538; assay: Modified "MIC" test in micro titer trays (liquid medium); format: cell-based, Staphylococcus aureus
Protocol: (§1) Potency of Teicoplanin TA2, TA3-1 alone or in combination was determined by agar diffusion assays. Furthermore, the antimicrobial effect of pure and spiked products was investigated through the determination of the minimum inhibitory concentration (MIC) by a modified “MIC” test in micro titer trays.
Pure TA3-1, (Teicoplanin Material B 96% TA2-X, 4% TA3-1) and mixtures thereof were used. The test strain used was S. aureus ATCC 6538 in final concentrations of 5×10^5/ml and 5×10^4/ml respectively. The test was carried out in micro titer trays as a modification of an ordinary MIC test. Instead of using two-fold dilutions, 0.40-1.20 μg/ml with 0.20 μl divisions and 1.0-4.0 μl/ml with 1.0 μl divisions was used. The trays were incubated at 37° C. The wells were examined after 24 hours and any visible growth was noted.
In order to strengthen the evidence some experiments were performed with a modified antimicrobial analysis of Teicoplanin, spiked with different amounts of TA3-1. It was carried out in liquid medium in contrast to the agar diffusion tests and determined the MIC values. The results are summarized in Table 4, (“MIC”-values of Teicoplanin and/or TA3-1 on S. aureus ATCC6538).
(§2) Potency of teicoplanin TA2, TA3-1 alone or in combinations was determined by agar diffusion assays as described in example 1. Modified MIC-values in microtitre trays were determined as described in example 1.

[2] = system: Staphylococcus aureus ATCC 6538; assay: Microbiological potency by agar diffusion; format: cell-based
Protocol: Accordingly, in one embodiment a Teicoplanin composition as described herein, has a higher antibiotic activity than a corresponding Teicoplanin composition that has a %(mg TA3)/(mg TA3+TA2) of 6.5%, where the antibiotic activity is measured by a microbiological agar diffusion assay using Staphylococcus aureus ATCC 6538 as test strain and the measured potential potency (IU per mg TA2+TA3/g composition) is used to calculate the antibiotic activity.
Procedure for the Determination of Microbiological Potency by Agar Diffusion
as §1
The potency test is carried out according to the assay described below. […]
The results are analyzed by reading the zone diameters carefully with a 10× magnification and a precision of 0.1 mm. […]
as §2

MIC value relative to Targocid alone (times higher) ([1]; Example 2, FIG. 6, MIC in μg powder/ml solution): 4-5 times
MIC (μg/ml) 5 × 10^4/ml S.aureus ([1]; inoculum 5 × 10^4/ml, 37° C., read after 24 hours, lowest concentration without visible growth): 2–3 μg/ml
MIC (μg/ml) 5 × 10^5/ml S.aureus ([1]; inoculum 5 × 10^5/ml, 37° C., read after 24 hours, lowest concentration without visible growth): 2–3 μg/ml
Structure (SMILES): CC(=O)N[C@H]1[C@H](O[C@@H]2c3ccc(c(Cl)c3)Oc3cc4cc(c3O)Oc3ccc(cc3Cl)C[C@H]3NC(=O)[C@H](N)c5ccc(O)c(c5)Oc5cc(O)cc(c5)[C@H](NC3=O)C(=O)N[C@H]4C(=O)N[C@H]3C(=O)N[C@@H]2C(=O)N[C@H](C(=O)O)c2cc(O)cc(O[C@H]4O[C@H](CO)[C@@H](O)[C@H](O)[C@@H]4O)c2-c2cc3ccc2O)O[C@H](CO)[C@@H](O)[C@@H]1O [TA3-1, Teicoplanin A3-1]
Potency IU/mg powder ([2]; Example 1, agar diffusion, 2-point assay, potency of the powder as such): 570 IU/mg powder
potency by agar diffusion (IU/mg powder) compared with Targocid alone ([2]; Example 2, FIG. 5, Targocid/TA3-1 solutions mixed at different mass TA3-1%): much lower potency
